Measurements from ChEMBL document CHEMBL4196045, “Identification of cisapride as new inhibitor of putrescine uptake in Trypanosoma cruzi by combined ligand- and structure-based virtual screening” (Eur J Med Chem, 2018).
Calls of active or inactive are those of the source. No cut-off for these calls is given here.

Assays:
Trypanosoma cruzi [1] = assay: Antitrypanosomal activity against Trypanosoma cruzi Y epimastigotes at 100 uM after 7 days by hemocytometry; assay type: functional, organism-based
Trypanosoma cruzi [2] = assay: Antitrypanosomal activity against Trypanosoma cruzi Y epimastigotes after 7 days by hemocytometry; assay type: functional, organism-based; conditions: 168 h
[3] = target: T1, Putative amino acid transporter PAT12 (Trypanosoma cruzi) (UniProt Q6QT93); assay: Inhibition of Trypanosoma cruzi Y epimastigotes PAT12 assessed as reduction in initial velocity of [14C]-putrescine uptake at 50 uM in presence of non-radioactive putrescine by liquid scintillation counting method
T1 sequence (whole entry): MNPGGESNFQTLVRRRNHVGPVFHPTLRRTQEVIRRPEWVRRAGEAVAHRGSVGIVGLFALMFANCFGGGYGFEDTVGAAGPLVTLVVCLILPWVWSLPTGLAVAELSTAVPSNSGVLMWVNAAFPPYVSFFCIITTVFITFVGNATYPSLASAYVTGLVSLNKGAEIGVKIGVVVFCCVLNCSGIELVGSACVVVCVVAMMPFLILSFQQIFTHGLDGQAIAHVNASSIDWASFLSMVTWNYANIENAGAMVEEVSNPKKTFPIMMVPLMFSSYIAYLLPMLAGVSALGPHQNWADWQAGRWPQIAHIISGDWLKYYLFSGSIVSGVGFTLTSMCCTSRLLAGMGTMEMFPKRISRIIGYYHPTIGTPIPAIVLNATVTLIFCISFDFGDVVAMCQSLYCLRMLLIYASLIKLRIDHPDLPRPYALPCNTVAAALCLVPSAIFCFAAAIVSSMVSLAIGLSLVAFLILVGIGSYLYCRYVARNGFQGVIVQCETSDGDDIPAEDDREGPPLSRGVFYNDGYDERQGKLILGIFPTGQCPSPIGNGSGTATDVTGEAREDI

Trypanosoma cruzi [4] = assay: Inhibition of Trypanosoma cruzi Y epimastigotes AAAP411 assessed as reduction in [1,4-14C]-arginine uptake in presence of non-radioactive arginine by liquid scintillation counting method
Trypanosoma cruzi [5] = assay: Antitrypanosomal activity against Trypanosoma cruzi Y epimastigotes at 200 uM after 7 days by hemocytometry; assay type: functional, organism-based

IC50 (Trypanosoma cruzi [2]) [µM] | inhibition [3] | inhibition (Trypanosoma cruzi [4]) | SMILES | Activity (Trypanosoma cruzi [1]) | Activity (Trypanosoma cruzi [5])
41.1 | inactive | inactive | NCc1ccccc1OC1CCCC1 | Active | –
– | inactive | – | Cc1cccc(C)c1OCC(C)N (racemic) | – | inactive
– | inactive | – | CN(CCCOc1ccc2c(c1)OCO2)C1CCC(CO)CC1 (stereo not drawn) | – | inactive
